Laboratory results: ChEMBL document CHEMBL2401629, “HS-1793, a recently developed resveratrol analogue protects rat heart against hypoxia/reoxygenation injury via attenuating mitochondrial damage” (2013)
Activity calls are given as the source filed them. The rule behind the calls is not given here.

Assays:
[1] = Reduction of ouabain-induced mitochondrial calcium flux in Sprague-Dawley rat cardiomyocytes at 10 uM after 15 mins by Rhod 2AM staining relative to control; type: functional, Cardiac muscle cell; design: scale not given: the % may be the effect or the level left
Heart = assay: Cardioprotective activity in Sprague-Dawley rat heart assessed as reduction of hypoxia/reoxygenation-induced infarct size at 10 uM treated 30 mins before reoxygenation by triphenyltetrazolium chloride staining (reference value: 42.10 +/- 7.36%); type: functional; design: scale not given: the % may be the effect or the level left
[2] = Cardioprotective activity in Sprague-Dawley rat cardiomyocytes assessed as reduction of hypoxia/reoxygenation-induced mitochondrial superoxide level at 10 uM after 15 mins by MitoSOX red staining relative to control; type: functional, cell-based; design: scale not given: the % may be the effect or the level left; details: Cardiac muscle cell
[3] = Cardioprotective activity in Sprague-Dawley rat cardiomyocytes assessed as prevention of hypoxia/reoxygenation-induced collapse of state 3 respiration in presence of 100 uM ADP; type: functional, cell-based; details: Cardiac muscle cell
Rattus norvegicus = organism: Rattus norvegicus; assay: Inhibition of calcium-induced cardiac mitochondria swelling in Sprague-Dawley rat at 1 uM after 10 mins; type: functional; details: Heart
[4] = Cardioprotective activity in Sprague-Dawley rat cardiomyocytes assessed as reduction of hypoxia/reoxygenation-induced mitochondrial calcium flux at 10 uM after 15 mins by Rhod 2AM staining relative to control; type: functional, cell-based; design: scale not given: the % may be the effect or the level left; details: Cardiac muscle cell

## Oc1ccc(-c2ccc3cc(O)ccc3c2)c(O)c1
[1]
  Activity: 111.82%
Heart
  Activity: 3.92%
[2]
  Activity: 98.1%
[3]
  Activity: Active
Rattus norvegicus
  inhibition: Active
[4]
  Activity: 168%
